From patent publication US10414754B2, “Indolizine compounds, a process for their preparation and pharmaceutical compositions containing them” (LES LABORATOIRES SERVIER, priority 2013, dated 2019)
Where a name gives a salt, the structure may show the parent alone.

Tests used:
[1] = test system: RS4;11 leukaemia tumour line; test: In vitro cytotoxicity (MTT) on RS4;11; type: cell-based; conditions: Homo sapiens; RS4;11 cells, 48 hours exposure
Experimental: The cytotoxicity studies were carried out on the RS4;11 leukaemia tumour line.
The cells are distributed onto microplates and exposed to the test compounds for 48 hours.
The cell viability is then quantified by a colorimetric assay, the Microculture Tetrazolium Assay (Cancer Res., 1987, 47, 939-942).

[2] = target: T1, Bcl-2 protein (histag-Bcl-2, UniProtKB P10415) (Homo sapiens, UniProt P10415); test: Inhibition of Bcl-2 by the fluorescence polarisation technique; type: binding; conditions: fluorescence polarisation, 2 hours incubation; read-out: IC50 (nM) Bcl-2 FP
T1 construct: His tag
T1 sequence (P10415 whole entry): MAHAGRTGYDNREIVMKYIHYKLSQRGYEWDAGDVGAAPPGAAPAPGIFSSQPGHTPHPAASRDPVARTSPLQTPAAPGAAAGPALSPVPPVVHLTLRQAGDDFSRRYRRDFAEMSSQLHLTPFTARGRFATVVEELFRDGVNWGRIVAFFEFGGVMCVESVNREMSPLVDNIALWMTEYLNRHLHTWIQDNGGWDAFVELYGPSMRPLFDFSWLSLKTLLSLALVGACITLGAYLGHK
Outline: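 Fluorescence polarisation competition: His-tagged human Bcl-2 (2.50×10^−8 M final) was mixed with fluorescein-labelled peptide (1.00×10^−8 M final) and increasing compound concentrations. Buffer was 10 mM Hepes, 150 mM NaCl, 0.05% Tween20, pH 7.4. Polarisation was read after 2 h.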

Compound	IC50 [2] [nM]	IC50 [1] [nM]
C[C@@H]1Cc2ccccc2CN1C(=O)c1cc2c(cc1-c1cc(C(=O)N(c3ccc(O)cc3)c3cccnc3)c3ccccn13)OCO2 [Example 34, N-(4-Hydroxyphenyl)-3-(6-{[(3R)-3-methyl-3,4-dihydroisoquinolin-2(1H)-yl]carbonyl}-1,3-benzodioxol-5-yl)-N-(pyridin-3-yl)indolizine-1-carboxamide hydrochloride]	5.6	27.3
C[C@@H]1Cc2ccccc2CN1C(=O)c1ccc(Cl)cc1-c1cc(C(=O)N(c2ccc(O)cc2)c2ccc3c(cnn3C)c2)c2n1CCNC2 [Example 12, 6-(5-Chloro-2-{[(3R)-3-methyl-3,4-dihydroisoquinolin-2(1H)-yl]-carbonyl}phenyl)-N-(4-hydroxyphenyl)-N-(1-methyl-1H-indazol-5-yl)-1,2,3,4-tetrahydropyrrolo[1,2-a]pyrazine-8-carboxamide hydrochloride]	10.4	116
C[C@@H]1Cc2ccccc2CN1C(=O)c1cc2c(cc1-c1cc(C(=O)N(c3ccc(O)cc3)c3ccc4c(ccn4C)c3)c3n1CCN(C)C3)OCCO2 [Example 6, N-(4-Hydroxyphenyl)-2-methyl-6-(7-{[(3R)-3-methyl-3,4-dihydroiso-quinolin-2(1H)-yl]carbonyl}-2,3-dihydro-1,4-benzodioxin-6-yl)-N-(1-methyl-1H-indol-5-yl)-1,2,3,4-tetrahydropyrrolo[1,2-a]pyrazine-8-carboxamide hydrochloride]	60.3	161
C[C@@H]1Cc2ccccc2CN1C(=O)c1cc2c(cc1-c1cc(C(=O)N(c3ccc(O)cc3)c3cnc4ncnn4c3)c3ccccn13)OCO2 [Example 66, N-(4-Hydroxyphenyl)-3-(6-{[(3R)-3-methyl-3,4-dihydroisoquinolin-2(1H)-yl]carbonyl}-1,3-benzodioxol-5-yl)-N-([1,2,4]triazolo[1,5-a]pyrimidin-6-yl)-indolizine-1-carboxamide]	4.7	42
C[C@@H]1Cc2ccccc2CN1C(=O)c1cc2c(cc1-c1cc(C(=O)N(c3ccc(O)cc3)c3cnn(CCN4CCOCC4)c3)c3ccccn13)OCO2 [Example 45, N-(4-Hydroxyphenyl)-3-(6-{[(3R)-3-methyl-3,4-dihydroisoquinolin-2(1,H)-yl]carbonyl}-1,3-benzodioxol-5-yl)-N-{1-[2-(morpholin-4-yl)ethyl]-1H-pyrazol-4-yl}indolizine-1-carboxamide hydrochloride]	3.8	63.8
C[C@@H]1Cc2ccccc2CN1C(=O)c1ccc(Cl)cc1-c1cc(C(=O)N(c2ccc(O)cc2)c2ccc3c(ccn3CCN3CCOCC3)c2)c2ccccn12 [Example 8, 3-(5-Chloro-2-{[(3R)-3-methyl-3,4-dihydroisoquinolin-2(1H)-yl]-carbonyl}phenyl)-N-(4-hydroxyphenyl)-N-{1-[2-(morpholin-4-yl)ethyl]-1H-indol-5-yl}indolizine-1-carboxamide hydrochloride]	24.5	20.5
O=C(c1cc2c(cc1-c1cc(C(=O)N(c3ccc(O)cc3)c3ccc(OCCN4CCOCC4)c(F)c3)c3ccccn13)OCO2)N1CCc2ccccc2C1 [Example 18, 3-[6-(3,4-Dihydroisoquinolin-2(1H)-ylcarbonyl)-1,3-benzodioxol-5-yl]-N-{3-fluoro-4-[2-(morpholin-4-yl)ethoxy]phenyl}-N-(4-hydroxyphenyl)indolizine-1-carboxamide hydrochloride]	7.5	47.7
C[C@@H]1Cc2ccccc2CN1C(=O)c1ccccc1-c1cc(C(=O)N(c2ccc(O)cc2)c2cnc3c(ccn3C)c2)c2ccccn12 [Example 52, N-(4-Hydroxyphenyl)-3-(2-{[(3R)-3-methyl-3,4-dihydroisoquinolin-2(1H)-yl]carbonyl}phenyl)-N-(1-methyl-1H-pyrrolo[2,3-b]pyridin-5-yl)indolizine-1-carboxamide]	7.9	20.9
CCCCN(C(=O)c1cc(-c2cc3c(cc2C(=O)N2Cc4ccccc4C[C@H]2C)OCO3)n2c1CNCC2)c1ccc(O)cc1 [Example 79, N-Butyl-N-(4-hydroxyphenyl)-6-(6-{[(3R)-3-methyl-3,4-dihydroiso-quinolin-2(1H)-yl]carbonyl}-1,3-benzodioxol-5-yl)-1,2,3,4-tetrahydropyrrolo[1,2-a]-pyrazine-8-carboxamide]	99.1	1010
C[C@@H]1Cc2ccccc2CN1C(=O)c1ccc(F)cc1-c1cc(C(=O)N(c2ccncc2)c2ccc(O)cc2)c2n1CCCC2 [Example 64, 3-(5-Fluoro-2-{[(3R)-3-methyl-3,4-dihydroisoquinolin-2(1H)-yl]-carbonyl}phenyl)-N-(4-hydroxyphenyl)-N-(pyridin-4-yl)-5,6,7,8-tetrahydroindolizine-1-carboxamide]	7.8	282

More lines, main results first:

IC50 [2] [nM]	Compound	IC50 [1] [nM]
12.9	O=C(c1cc(-c2cc3c(cc2C(=O)N2Cc4ccccc4C[C@H]2CCN2CCOCC2)OCO3)n2cccnc12)N(c1ccccc1)c1ccc(O)cc1 [Example 22, N-(4-Hydroxyphenyl)-6-(6-{[(3S)-3-[2-(morpholin-4-yl)ethyl]-3,4-dihydroisoquinolin-2(1H)-yl]carbonyl}-1,3-benzodioxol-5-yl)-N-phenylpyrrolo[1,2-a]-pyrimidine-8-carboxamide hydrochloride]	263
6.2	O=C(c1cc(-c2cc3c(cc2C(=O)N2Cc4ccccc4C[C@H]2CCN2CCOCC2)OCO3)n2c1CCCC2)N(c1ccc(O)cc1)c1cccc(F)c1 [Example 24, N-(3-Fluorophenyl)-N-(4-hydroxyphenyl)-3-(6-{[(3S)-3-[2-(morpholin-4-yl)ethyl]-3,4-dihydroisoquinolin-2(1H)-yl]carbonyl}-1,3-benzodioxol-5-yl)-5,6,7,8-tetrahydroindolizine-1-carboxamide hydrochloride]	28.4
4.6	O=C(c1cc(-c2cc3c(cc2C(=O)N2Cc4ccccc4C[C@H]2CCCN2CCOCC2)OCO3)n2c1CCCC2)N(c1ccccc1)c1ccc(O)cc1 [Example 38, N-(4-Hydroxyphenyl)-3-(6-{[(3R)-3-[3-(morpholin-4-yl)propyl]-3,4-dihydroisoquinolin-2(1H)-yl]carbonyl}-1,3-benzodioxol-5-yl)-N-phenyl-5,6,7,8-tetrahydroindolizine-1-carboxamide hydrochloride]	9.52
15.1	C[C@@H]1Cc2ccccc2CN1C(=O)c1cc2c(cc1-c1cc(C(=O)N(c3ccc(O)cc3)c3ccc(CCN4CCCC(F)(F)C4)cc3)c3ccccn13)OCO2 [Example 35, N-{4-[2-(3,3-Difluoropiperidin-1-yl)ethyl]phenyl}-N-(4-hydroxyphenyl)-3-(6-{[(3R)-3-methyl-3,4-dihydroisoquinolin-2(1H)-yl]carbonyl}-1,3-benzodioxol-5-yl)indolizine-1-carboxamide hydrochloride]	62.2
7.7	O=C(c1cc(-c2cc(Cl)ccc2C(=O)N2Cc3ccccc3C[C@H]2CCN2CCOCC2)n2c1CCCC2)N(c1ccc(O)cc1)c1cccc(F)c1 [Example 27, 3-(5-Chloro-2-{[(3S)-3-[2-(morpholin-4-yl)ethyl]-3,4-dihydroisoquinolin-2(1H)-yl]carbonyl}phenyl)-N-(3-fluorophenyl)-N-(4-hydroxyphenyl)-5,6,7,8-tetrahydroindolizine-1-carboxamide hydrochloride]	44.1
68.7	CN(C(=O)c1cc(-c2cc3c(cc2C(=O)N2CCc4ccccc4C2)OCO3)n2c1CCCC2)c1ccc(O)cc1 [Example 74, 3-[6-(3,4-Dihydroisoquinolin-2(1H)-ylcarbonyl)-1,3-benzodioxol-5-yl]-N-(4-hydroxyphenyl)-N-methyl-5,6,7,8-tetrahydroindolizine-1-carboxamide]	1340
3.7	Cn1ncc2cc(N(C(=O)c3cc(-c4cc5c(cc4C(=O)N4Cc6ccccc6C[C@H]4CCN4CCOCC4)OCO5)n4c3CCCC4)c3ccc(O)cc3)ccc21 [Example 14, N-(4-Hydroxyphenyl)-N-(1-methyl-1H-indazol-5-yl)-3-(6-{[(3S)-3-[2-(morpholin-4-yl)ethyl]-3,4-dihydroisoquinolin-2(1H)-yl]carbonyl}-1,3-benzodioxol-5-yl)-5,6,7,8-tetrahydroindolizine-1-carboxamide hydrochloride]	7.6
67.7	CCN(C(=O)c1cc(-c2cc3c(cc2C(=O)N2CCc4ccccc4C2)OCO3)n2c1CCCC2)c1ccc(O)cc1 [Example 75, 3-[6-(3,4-Dihydroisoquinolin-2(11)-ylcarbonyl)-1,3-benzodioxol-5-yl]-N-ethyl-N-(4-hydroxyphenyl)-5,6,7,8-tetrahydroindolizine-1-carboxamide]	1360
21.2	O=C(c1cc2c(cc1-c1cc(C(=O)N(c3ccccc3)c3ccc(O)cc3)c3n1CCCC3)OCO2)N1CCc2ccccc2C1 [Example 57, 3-[6-(3,4-Dihydroisoquinolin-2(1H)-ylcarbonyl)-1,3-benzodioxol-5-yl]-N-(4-hydroxyphenyl)-N-phenyl-5,6,7,8-tetrahydroindolizine-1-carboxamide]	282
2.9	COC1CN(CC[C@@H]2Cc3ccccc3CN2C(=O)c2cc3c(cc2-c2cc(C(=O)N(c4ccccc4)c4ccc(O)cc4)c4n2CCCC4)OCO3)C1 [Example 44, N-(4-Hydroxyphenyl)-3-(6-{[(3S)-3-[2-(3-methoxyazetidin-1-yl)ethyl]-3,4-dihydroisoquinolin-2(1H)-yl]carbonyl}-1,3-benzodioxol-5-yl)-N-phenyl-5,6,7,8-tetrahydroindolizine-1-carboxamide]	8.56
